Results from ChEMBL document CHEMBL1137403, “Discovery of 2-[4-{{2-(2S,5R)-2-cyano-5-ethynyl-1-pyrrolidinyl]-2-oxoethyl]amino]- 4-methyl-1-piperidinyl]-4-pyridinecarboxylic acid (ABT-279): a very potent, selective, effective, and well-tolerated inhibitor of dipeptidyl peptidase-IV, useful for the treatment of diabetes” (J Med Chem, 2006).

What was measured:
[1] = target: Dipeptidyl peptidase 8 (Homo sapiens, UniProt Q6V1X1)
[2] = target: Dipeptidyl peptidase 9 (Homo sapiens, UniProt Q86TI2)
Chain of Dipeptidyl peptidase 9 (Q86TI2 whole entry): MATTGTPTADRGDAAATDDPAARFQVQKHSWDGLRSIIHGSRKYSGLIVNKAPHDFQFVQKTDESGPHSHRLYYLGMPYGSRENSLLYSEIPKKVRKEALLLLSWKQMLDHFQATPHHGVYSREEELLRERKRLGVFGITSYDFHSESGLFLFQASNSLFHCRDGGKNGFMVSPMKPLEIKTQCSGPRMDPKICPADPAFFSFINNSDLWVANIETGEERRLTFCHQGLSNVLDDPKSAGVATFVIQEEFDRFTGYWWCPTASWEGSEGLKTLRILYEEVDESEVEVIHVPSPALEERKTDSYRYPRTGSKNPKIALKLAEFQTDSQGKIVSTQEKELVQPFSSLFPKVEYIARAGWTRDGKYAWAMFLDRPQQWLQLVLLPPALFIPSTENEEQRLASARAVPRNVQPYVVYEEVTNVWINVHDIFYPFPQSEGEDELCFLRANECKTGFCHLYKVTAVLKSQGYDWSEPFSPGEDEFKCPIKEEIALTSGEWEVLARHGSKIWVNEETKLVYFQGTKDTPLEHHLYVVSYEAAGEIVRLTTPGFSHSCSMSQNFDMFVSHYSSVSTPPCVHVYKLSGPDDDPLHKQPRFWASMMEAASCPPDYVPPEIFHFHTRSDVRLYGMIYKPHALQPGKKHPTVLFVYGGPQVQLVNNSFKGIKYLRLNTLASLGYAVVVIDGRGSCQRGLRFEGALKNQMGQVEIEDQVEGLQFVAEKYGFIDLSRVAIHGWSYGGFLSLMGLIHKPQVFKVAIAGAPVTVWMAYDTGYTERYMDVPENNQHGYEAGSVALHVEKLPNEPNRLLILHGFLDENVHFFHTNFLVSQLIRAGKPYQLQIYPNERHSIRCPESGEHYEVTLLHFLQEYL

Chain of Dipeptidyl peptidase 8 (Q6V1X1 whole entry): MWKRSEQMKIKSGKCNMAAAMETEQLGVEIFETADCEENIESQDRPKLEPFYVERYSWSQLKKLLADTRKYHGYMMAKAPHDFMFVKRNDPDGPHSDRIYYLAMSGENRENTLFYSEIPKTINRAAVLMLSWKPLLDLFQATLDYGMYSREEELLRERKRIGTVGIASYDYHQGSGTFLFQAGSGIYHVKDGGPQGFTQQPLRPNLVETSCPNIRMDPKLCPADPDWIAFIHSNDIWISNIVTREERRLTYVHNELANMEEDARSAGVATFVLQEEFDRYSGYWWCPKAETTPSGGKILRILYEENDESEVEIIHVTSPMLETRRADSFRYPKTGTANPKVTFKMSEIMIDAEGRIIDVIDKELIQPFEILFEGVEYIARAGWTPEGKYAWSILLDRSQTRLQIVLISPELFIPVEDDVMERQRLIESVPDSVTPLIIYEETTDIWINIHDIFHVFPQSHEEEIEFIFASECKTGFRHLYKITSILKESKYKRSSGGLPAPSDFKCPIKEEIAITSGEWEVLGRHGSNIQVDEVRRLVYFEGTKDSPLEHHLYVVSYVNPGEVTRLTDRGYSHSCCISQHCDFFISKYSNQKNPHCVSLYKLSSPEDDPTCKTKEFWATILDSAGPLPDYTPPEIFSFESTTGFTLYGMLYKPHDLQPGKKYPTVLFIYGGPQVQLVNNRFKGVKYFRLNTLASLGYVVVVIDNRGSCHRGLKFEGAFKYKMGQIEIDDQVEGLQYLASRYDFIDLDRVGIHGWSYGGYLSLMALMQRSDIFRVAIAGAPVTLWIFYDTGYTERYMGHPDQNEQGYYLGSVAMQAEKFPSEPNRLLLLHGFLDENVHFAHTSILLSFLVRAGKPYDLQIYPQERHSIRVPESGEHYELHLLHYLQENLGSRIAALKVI

Ki [1] [µM] | Ki [2] [µM] | Compound
> 30 | > 30 | C#C[C@H]1CC[C@@H](C#N)N1C(=O)CNC1CCCC1
> 30 | > 30 | C#C[C@H]1CC[C@@H](C#N)N1C(=O)CNC12CC3CC(CC(O)(C3)C1)C2
> 30 | > 30 | C#C[C@H]1CC[C@@H](C#N)N1C(=O)CNC(C)(C)C
– | > 30 | C#C[C@H]1CC[C@@H](C#N)N1C(=O)[C@@H](N)C1CCCC1
